# Patent publication US20220218670A1, “METHODS OF TREATING DISEASES CHARACTERISED BY VASOCONSTRICTION” (Gesynta Pharma AB, priority 2016, published 2022)
# Tests used:
# Format in all cases: in vivo
# ADMA = test: Circulating ADMA in plasma by immunoassay after COX-2 inhibition in mice; settings: wild-type mice; parecoxib 100 mg/kg in drinking water for 5 days; FIG. 1
# Description: Experiments were performed on male and female mPGES-1^−/− and their wild-type mPGES-1^+/+ littermate mice at 6-8 weeks of age. […] All mice were housed with a 12 h light/dark cycle in a climate-controlled environment, and were fed with standard rodent chow with water ad libitum. All mice experiments were conducted in line with EU directive 2010/63/EU and according to guidelines from the Swedish Veterinary board the Guide for the Care and Use of Laboratory Animals published by the US National Institutes of Health (NIH Publication No. 85-23, revised 1996). Studies were sanctioned by the Karolinska Institute ethics committee (dnr. N86_13 and N364_11), the Shantou University Institutional Animal Research and Use Committee and/or the Imperial College London Ethical Review Panel (PPL 70/7013 and 70/8422). Where indicated, wild-type (mPGES-1^+/+) mice were treated with the selective COX-2 inhibitor, parecoxib (100 mg/kg; Pfizer, USA) added to their drinking water for 5 days prior to tissue collection as we have done before (see Ahmetaj-Shala, B. et al., Circulation, 131, 633-642 (2015)).
# Plasma was separated by centrifugation for the following circulating mediators measured by immunoassay: ADMA (DLD Diagnostika, Germany), PGE2 (Cisbio Bioassays, France).
# Prmt1 = test: Gene expression in renal medulla (TaqMan), gene for synthesis of ADMA; settings: wild-type mice, parecoxib 100 mg/kg in drinking water for 5 days, FIG. 2
# Description: (§1) Experiments were performed on male and female mPGES-1^−/− and their wild-type mPGES-1^+/+ littermate mice at 6-8 weeks of age. […] All mice were housed with a 12 h light/dark cycle in a climate-controlled environment, and were fed with standard rodent chow with water ad libitum. All mice experiments were conducted in line with EU directive 2010/63/EU and according to guidelines from the Swedish Veterinary board the Guide for the Care and Use of Laboratory Animals published by the US National Institutes of Health (NIH Publication No. 85-23, revised 1996). […]
# (§2) RNA was isolated from renal medulla homogenates using a magnetic silica-bead isolation kit (Life Technologies, UK) and converted to cDNA using reverse transcriptase (Thermo Fisher Scientific, UK) with oligo(dT) primers (Life Technologies, UK). Gene expression levels were determined using TaqMan hydrolysis probes (Life Technologies, UK) recognising Prmt1 (probe ID: Mm00480133_m1 or Agxt2 (probe ID: Mm01304088_m1). Data were normalised to expression of the housekeeping genes 18S (probe ID: Mm03928990_g1) and Gapdh (probe ID: Mm99999915_g1) and relative expression compared using the comparative Ct method.
# Agxt2 = test: Gene expression in renal medulla (TaqMan), gene for degradation of ADMA; settings: wild-type mice, parecoxib 100 mg/kg in drinking water for 5 days, FIG. 3
# Description: as §1, §2
structure (smiles),measurement,setting,value
CCC(=O)NS(=O)(=O)c1ccc(-c2c(-c3ccccc3)noc2C)cc1 [parecoxib],plasma levels of ADMA,ADMA,increased levels of ADMA
same,expression of genes responsible for synthesis of ADMA (Prmt1),Prmt1,increased expression of genes responsible for synthesis of ADMA (Prmt1)
same,expression of genes responsible for degradation of ADMA (Agxt2),Agxt2,increased expression of genes responsible for degradation of ADMA (Agxt2)
